From publication PMC10535624, “Curcuminoid Chalcones: Synthesis, Stability, and New Neuroprotective and Sonosensitising Activities” (Pharmaceuticals, 2023)

Tests used:
[1] = Hydroxyl radical antioxidant capacity (HORAC); settings: samples 1 mg/mL DMSO; mean ± SEM, n = 3
[2] = target: T1, glutathione reductase (GR) (Homo sapiens, UniProt P00390); assay: Effect on GR activity; type: biochemical; settings: samples 3 mM/dm^3 in DMSO; mean ± SEM, n = 3
T1 sequence (P00390 44-522): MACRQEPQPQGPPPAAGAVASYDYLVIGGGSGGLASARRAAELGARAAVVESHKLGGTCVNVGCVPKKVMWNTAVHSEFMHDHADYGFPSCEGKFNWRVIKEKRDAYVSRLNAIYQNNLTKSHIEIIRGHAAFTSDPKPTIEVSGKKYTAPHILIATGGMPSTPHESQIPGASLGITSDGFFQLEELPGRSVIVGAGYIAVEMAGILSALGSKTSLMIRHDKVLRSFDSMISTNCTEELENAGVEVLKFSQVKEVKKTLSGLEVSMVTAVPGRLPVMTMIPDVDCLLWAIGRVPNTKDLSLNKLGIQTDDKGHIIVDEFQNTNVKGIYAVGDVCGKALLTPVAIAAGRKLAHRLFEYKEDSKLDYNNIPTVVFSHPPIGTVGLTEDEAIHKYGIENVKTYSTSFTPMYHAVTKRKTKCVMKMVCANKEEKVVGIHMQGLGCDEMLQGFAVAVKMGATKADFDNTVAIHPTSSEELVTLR
Procedure: (§1) We decided to extend the study by measuring the compounds’ ability to inhibit glutathione reductase (GR) and GPx activities, the human cells’ main endogenous enzymatic defence systems. Therefore, we checked the influence of some curcuminoid chalcones on GR and GPx using in vitro spectroscopic methods (Table 2). Moreover, the effects of curcuminoid chalcones on CAT activity were estimated (Table 2).
(§2) The samples were dissolved in DMSO (Sigma D4540) to obtain a concentration of 3 mM/dm^3.
(§3) The analyses were performed strictly as described by Studzińska-Sroka et al..

[3] = test system: glutathione peroxidase (GPx); assay: Effect on GPx activity; type: biochemical; settings: samples 3 mM/dm^3 in DMSO; mean ± SEM, n = 3
Procedure: as §1, §2, §3

[4] = test system: SCC-25 cells; assay: Sonodynamic cytotoxicity, MTT test; type: cell-based, human; settings: 40 µM, 8 h, then US 3 min, 3 MHz, 0.8 W/cm^2; MTT 6 h later; compared to untreated cells
[5] = target: T2, catalase (CAT) (Aspergillus niger, UniProt P55303); assay: Effect on CAT activity; type: biochemical; settings: samples 3 mM/dm^3 in DMSO, 0.01 mL; mean ± SEM, n = 3
T2 construct: purchased Sigma C3515
T2 sequence (P55303 whole entry): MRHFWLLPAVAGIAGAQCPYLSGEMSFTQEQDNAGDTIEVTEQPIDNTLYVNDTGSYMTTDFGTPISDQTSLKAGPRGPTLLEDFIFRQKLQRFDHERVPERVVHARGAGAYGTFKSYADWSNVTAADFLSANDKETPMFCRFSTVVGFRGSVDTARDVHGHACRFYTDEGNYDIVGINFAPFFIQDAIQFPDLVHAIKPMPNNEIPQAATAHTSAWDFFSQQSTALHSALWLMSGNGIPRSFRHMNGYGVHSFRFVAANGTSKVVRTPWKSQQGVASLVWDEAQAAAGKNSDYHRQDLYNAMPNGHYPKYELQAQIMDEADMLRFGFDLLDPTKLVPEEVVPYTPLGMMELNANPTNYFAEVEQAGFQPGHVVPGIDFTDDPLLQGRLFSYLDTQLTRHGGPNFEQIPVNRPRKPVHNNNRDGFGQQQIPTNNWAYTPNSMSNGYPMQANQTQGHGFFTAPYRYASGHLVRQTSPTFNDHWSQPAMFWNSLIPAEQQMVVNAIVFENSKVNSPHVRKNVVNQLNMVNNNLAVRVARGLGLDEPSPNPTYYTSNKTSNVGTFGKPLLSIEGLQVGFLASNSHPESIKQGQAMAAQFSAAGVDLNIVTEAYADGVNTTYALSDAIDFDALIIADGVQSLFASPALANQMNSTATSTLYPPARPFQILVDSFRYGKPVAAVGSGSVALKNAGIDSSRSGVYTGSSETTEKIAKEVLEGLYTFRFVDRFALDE
Procedure: as §2
The method used by Watanabe et al. was used with the following modifications. The reaction mixture was composed of 0.02 mL of EDTA solution (56.5 mM), 0.01 mL of ^the sample, 0.02 mL of 3% H2O2 solution (Sigma H1009), and 0.02 mL of catalase solution (4000-fold diluted, Sigma C3515) (all reagents except the tested sample were diluted in TRIS buffer, pH 7.0, 1 mol/dm^3). The volume was completed to 0.31 mL by the same buffer solution. In a blank sample, DMSO (Sigma D4540) replaced the tested sample. The background of the sample was measured in a mixture composed of 0.01 mL of the sample completed to 0.31 mL by the buffer. The absorbance was read at 240 nm directly after the mixing and after 5 min of incubation (room temperature). The decreased absorbance (depletion of H2O2) in the tested and blank samples was compared. The calibration curve was produced using eleven H2O2 solutions (0.5693–5.693 mM/dm^3). The results are expressed in % inhibition and as H2O2 depletion (mmol of depleted H2O2/dm^3 min).

[6] = test system: SOD2 gene; parameters: method as in PMID 37779412; settings: qRT-PCR ref 35; cited from earlier work

COc1cc(C=CC(=O)c2ccccc2)ccc1OC(=O)C(C)c1ccc(CC(C)C)cc1 (stereo not shown) [Compound 2, 2-Methoxy-4-(3-oxo-3-phenylprop-1-en-1-yl)phenyl-2-(4-isobutylphenyl)-propionate]
HORAC, Gallic Acid Equivalents [1]: 24.2 ± 2.3 µg/mL | GR Inhibition (%) [2]: 27.1 ± 4.0% | GR activity (NADPH consumption rate) [2]: 1018 ± 150 nmol Depleted NADPH/min | GPx Inhibition (%) [3]: 17.0 ± 3.4% | GPx activity (NADPH consumption rate) [3]: 33.8 ± 6.8 nmol Depleted NADPH/min | Reduction of viability of SCC-25 cells, compound combined with US [4]: significantly reduced viability

COc1ccc(C=CC(=O)c2ccccc2)cc1OC(=O)C(C)c1ccc(CC(C)C)cc1 (stereo not shown) [Compound 6, 2-Methoxy-5-(3-oxo-3-phenylprop-1-en-1-yl)phenyl-2-(4-isobutylphenyl)-propionate]
HORAC, Gallic Acid Equivalents [1]: 20.4 ± 3.0 µg/mL | GR Inhibition (%) [2]: did not inhibit and - | GPx Inhibition (%) [3]: 17.4 ± 1.7% | GPx activity (NADPH consumption rate) [3]: 34.6 ± 3.3 nmol Depleted NADPH/min | CAT Inhibition (%) [5]: 41.9 ± 1.2% | CAT Inhibition of the H2O2 Depletion [5]: 0.15 ± 0.01 mm/dm^3/min | Decrease of expression of the SOD2 gene compared to the control [6]: 65.20%
